Several values for one entry are separate records, joined by “and”; a condition that tells them apart may be missing. Equal entries are not always repeated.
How the values were obtained:
[1] = Pharmacokinetic testing in rats (IV or PO); assay type: in vivo; conditions: rat, IV, 2 mg/kg
Experimental: Examples 1A, 2A, 4A, 12A, and 14A were tested in rats to assess pharmacokinetic parameters including maximum concentration (Cmax), area under the plasma concentration time curve (AUC), clearance (CL), steady state volume of distribution (Vss), half life (t1/2), and bioavailability (F). Male Sprague Dawley rats (˜300 g) were used. Rats received compound by intravenous (IV) or oral gavage (PO) administration and the doses tested including vehicle to formulate dosing solutions are listed in Table 5.
Following IV or PO administration, 0.2 mL blood was sampled from the jugular vein at various timepoints (Table 5). Twenty microL aliquots of plasma samples and standards were subjected to protein precipitation with acetonitrile containing an internal standard. Samples were vortexed and centrifuged to obtain supernatant which was analyzed by LC-MS/MS. Analyst (Version 1.4.1) was used to measure peak areas and peak area ratios of analyte to internal standard were calculated. LC-MS/MS conditions are as follows: Mass Spectrometer+Source Type was Sciex API 4000−Turbo Spray; HPLC pump was Shimadzu; Autosampler was CTC PAL Autosampler; Injection volume was 3.0 to 10 microL; A gradient was used with mobile phase A: 10 mM ammonium acetate and 1% Isopropyl alcohol in water; B: Acetonitrile; Flowrate 0.300 mL per minute (Column 2.0×30 mm 5 microm LUNA C18 column (phenomenex)). Detection mode was negative.
A calibration curve was constructed from the peak area ratios of the standards to the internal standard by applying a weighted linear (1/x or 1/x2) regression. The dynamic range of the standard curve was 5.00 ng/mL to 5000 ng/mL.
Pharmacokinetic parameters were determined from individual animal data using non-compartmental analysis in Watson (version 7.2). Concentrations below the limit of quantitation (BLQ) were recorded as 0 ng/mL for use in calculations.
The following calculations were used: AUC(0−τ)=Determined using the linear trapezoidal method AUC(0−□)=AUC(0−τ) plus extrapolated area determined by dividing plasma concentration at τ by the slope of the terminal log-linear phase CL=Dose/AUC(0−∞) Vdss=CL×MRT Cmax=Recorded directly from plasma concentration time curve Tmax=Recorded directly from plasma concentration time curve t½=ln(0.5)/slope of the terminal log-linear phase F %=AUC(0−∞)PO per dose/AUC(0−∞)IV per dose C(0)=Extrapolated by linear regression from the apparent distribution phase following IV administration MRT=AUMC(AUC(0−∞)/AUC(0−∞)

human SGLT2 = target: T1, human SGLT2 (Homo sapiens, UniProt P31639); test: SGLT2 functional assay: inhibition of AMG uptake in CHO-FlpIn cells stably expressing human SGLT2; assay type: cell-based; conditions: individual runs (Run No.), read-out: hSGLT2 IC50
T1 construct: expressed in transfected cells; host or cells: CHO-FlpIn (Invitrogen)
T1 sequence (P31639 1-672): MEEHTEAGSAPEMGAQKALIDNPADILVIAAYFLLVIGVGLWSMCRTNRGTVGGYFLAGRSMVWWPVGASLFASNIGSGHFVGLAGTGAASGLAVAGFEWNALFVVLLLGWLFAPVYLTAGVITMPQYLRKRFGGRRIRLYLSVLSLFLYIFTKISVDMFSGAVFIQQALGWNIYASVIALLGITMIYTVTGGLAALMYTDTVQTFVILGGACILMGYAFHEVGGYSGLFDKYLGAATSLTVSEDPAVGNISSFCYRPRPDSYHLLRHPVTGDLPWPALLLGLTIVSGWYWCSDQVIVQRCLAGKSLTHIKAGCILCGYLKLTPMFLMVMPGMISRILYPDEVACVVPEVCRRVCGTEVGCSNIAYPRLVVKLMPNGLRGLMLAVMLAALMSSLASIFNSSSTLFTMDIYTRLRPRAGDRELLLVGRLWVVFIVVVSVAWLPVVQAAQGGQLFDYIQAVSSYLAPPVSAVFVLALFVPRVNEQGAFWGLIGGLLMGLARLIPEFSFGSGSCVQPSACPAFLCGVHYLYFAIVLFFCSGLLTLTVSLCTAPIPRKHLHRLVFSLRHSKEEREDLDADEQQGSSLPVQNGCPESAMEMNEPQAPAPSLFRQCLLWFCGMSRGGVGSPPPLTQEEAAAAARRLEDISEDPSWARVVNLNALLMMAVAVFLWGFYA
From the text: The SGLT2 functional assay was designed to detect the inhibition of methyl-alpha-D glucopyranoside (AMG—a non-metabolizable form of glucose) uptake via the SGLT2 transporter. The SGLT2 transporter recovers glucose from the proximal tubules of the kidney; its inhibition results in sugar wasted in the urine. The positive control compound, Phlorizin, is a known inhibitor of glucose uptake for SGLT2 and was used for comparing the high percent effect of SGLT2 inhibition of the test compounds.
CHO-FlpIn (Invitrogen, Carlsbad, Calif.) cells stably expressing human SGLT2 (pcDNA5/FRT) were plated in Iso-TC 96 well plates (Perkin Elmer, Waltham, Mass.) at a density of 100,000 cells/well in 100 microL of growth media (1:1 F-12/DMEM media (Gibco, Carlsbad, Calif.), 10% FBS (Sigma, St. Louis Mo.), 1× Pen/Strep (Gibco, Carlsbad, Calif.), 600 microg/mL Hygromycin (Invitrogen, Carlsbad, Calif.)). Prior to treating with test compound, confluent cells were serum starved for 2 hours at 37° C. in 1:1 F-12/DMEM media, replacing with fresh F-12/DMEM media after 1 hour. […] Cell plates were then incubated for 3 hours at 37° C. for AMG uptake.

hSGLT1 = target: T2, hSGLT1 (Homo sapiens, UniProt P13866); test: SGLT1 functional assay: hSGLT1 IC50 (selectivity counter-screen to the SGLT2 AMG uptake assay); assay type: cell-based; conditions: individual runs (Run No.)
T2 sequence (P13866 1-664): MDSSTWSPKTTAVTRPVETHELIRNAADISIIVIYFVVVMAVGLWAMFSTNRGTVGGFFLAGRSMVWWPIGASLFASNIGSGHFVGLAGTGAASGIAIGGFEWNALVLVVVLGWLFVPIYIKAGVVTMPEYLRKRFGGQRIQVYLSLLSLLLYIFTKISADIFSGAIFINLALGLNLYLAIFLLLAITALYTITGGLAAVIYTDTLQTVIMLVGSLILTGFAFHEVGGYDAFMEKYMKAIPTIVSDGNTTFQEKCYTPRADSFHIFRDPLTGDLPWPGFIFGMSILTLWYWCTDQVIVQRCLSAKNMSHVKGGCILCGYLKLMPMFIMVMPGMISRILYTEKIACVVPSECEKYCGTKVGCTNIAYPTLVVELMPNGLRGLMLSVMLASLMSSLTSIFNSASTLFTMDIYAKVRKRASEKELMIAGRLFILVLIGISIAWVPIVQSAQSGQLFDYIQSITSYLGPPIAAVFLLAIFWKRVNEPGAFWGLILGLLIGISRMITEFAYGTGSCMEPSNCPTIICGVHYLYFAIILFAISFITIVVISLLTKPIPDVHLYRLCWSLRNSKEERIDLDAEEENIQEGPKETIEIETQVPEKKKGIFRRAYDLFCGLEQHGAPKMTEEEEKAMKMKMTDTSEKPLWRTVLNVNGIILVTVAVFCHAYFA

AUC(0-inf) ([1]; male, Sprague Dawley, plasma): 1340 ng·h/mL
CL [1]: 27.7 mL/min/kg
Vss [1]: 1.03 L/kg
t1/2 [1]: 56.4 min
IC50 (human SGLT2): 0.827 nM and 1.53 nM and 0.942 nM and 0.741 nM and 1.58 nM and 1.05 nM
IC50 (hSGLT1): 1240 nM and > 1000 nM and 679 nM
Structure (SMILES): CCOc1ccc(Cc2cc([C@]34OC[C@](CO)(O3)[C@@H](O)[C@H](O)[C@H]4O)ccc2C)cc1 [Example 2A, (1S,2S,3S,4R,5S)-5-[3-(4-ethoxy-benzyl)-4-methyl-phenyl]-1-hydroxymethyl-6,8-dioxa-bicyclo[3.2.1]octane-2,3,4-triol]
